Experimental data: paper PMC6199744, “Development of Chemical Proteomics for the Folateome and Analysis of the Kinetoplastid Folateome” (ACS Infectious Diseases, 2018)
Read-outs that look alike come from different tables or passages of the source.

What was measured:
[1] = target: T1, DHFR-TS (Leishmania major, UniProt P07382); experiment: biochemical; conditions: competing free ligand 100 μM; bead = immobilized compound of the row; L. major lysate; read-out: % Inhibition of protein binding to bead, DHFR-TS, L. major
[2] = target: T. brucei lysate proteins (Trypanosoma brucei brucei, UniProt P38973); assay type: binding; conditions: protein TB427.10.1070 CELL DIVISION PROTEIN KINASE 2 HOMOLOG 1 (CRK1)
[3] = target: T2, PTR1 (Leishmania major, UniProt Q01782); experiment: biochemical; conditions: competing free ligand 100 μM; bead = immobilized compound of the row; L. major lysate; read-out: % Inhibition of protein binding to bead, PTR-1, L. major
T2 sequence (Q01782 1-288): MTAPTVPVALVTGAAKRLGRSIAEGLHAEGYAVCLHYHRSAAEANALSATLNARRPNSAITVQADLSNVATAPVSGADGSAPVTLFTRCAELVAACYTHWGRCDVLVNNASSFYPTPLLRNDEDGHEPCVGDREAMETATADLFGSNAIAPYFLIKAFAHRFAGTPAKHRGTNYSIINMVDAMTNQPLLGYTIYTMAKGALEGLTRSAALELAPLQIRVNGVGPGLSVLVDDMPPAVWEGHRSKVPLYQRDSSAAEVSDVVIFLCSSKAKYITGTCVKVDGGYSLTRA

[4] = test system: NGG1 INTERACTING FACTOR 3-LIKE (Tb427tmp.02.5000); assay type: binding; conditions: for fold change: vehicle control = 1
[5] = target: T3, HeLa cell extract proteins (Homo sapiens, UniProt Q6PJT7); assay type: binding
T3 construct: endogenous in cells; host or cells: HeLa cell extract
T3 sequence (Q6PJT7 1-736): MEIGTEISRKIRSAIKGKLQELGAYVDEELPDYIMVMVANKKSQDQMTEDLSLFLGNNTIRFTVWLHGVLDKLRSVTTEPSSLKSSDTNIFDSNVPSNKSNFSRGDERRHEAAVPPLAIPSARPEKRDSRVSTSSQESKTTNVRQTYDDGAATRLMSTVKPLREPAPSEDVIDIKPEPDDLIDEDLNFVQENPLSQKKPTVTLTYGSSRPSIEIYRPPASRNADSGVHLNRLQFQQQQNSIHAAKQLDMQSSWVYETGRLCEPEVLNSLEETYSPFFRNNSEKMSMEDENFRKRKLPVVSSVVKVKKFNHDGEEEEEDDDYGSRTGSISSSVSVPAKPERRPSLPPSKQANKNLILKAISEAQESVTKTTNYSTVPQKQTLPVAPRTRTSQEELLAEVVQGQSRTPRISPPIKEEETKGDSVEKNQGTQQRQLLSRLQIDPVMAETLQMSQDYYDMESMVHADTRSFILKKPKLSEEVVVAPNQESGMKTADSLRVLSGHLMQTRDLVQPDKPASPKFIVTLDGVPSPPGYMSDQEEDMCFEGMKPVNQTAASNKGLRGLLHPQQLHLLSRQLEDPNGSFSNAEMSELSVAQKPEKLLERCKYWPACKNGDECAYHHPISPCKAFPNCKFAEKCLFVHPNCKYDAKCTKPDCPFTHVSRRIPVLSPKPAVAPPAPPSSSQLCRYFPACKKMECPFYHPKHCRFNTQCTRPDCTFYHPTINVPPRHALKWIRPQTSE

[6] = target: T4, HeLa cell extract proteins (Homo sapiens, UniProt P41091); assay type: binding
T4 construct: endogenous in cells; host or cells: HeLa cell extract

[7] = target: T5, HeLa cell extract proteins (Homo sapiens, UniProt Q9H1A4); assay type: binding
T5 construct: endogenous in cells; host or cells: HeLa cell extract

[8] = target: T6, HeLa cell extract proteins (Homo sapiens, UniProt P33991); assay type: binding
T6 construct: endogenous in cells; host or cells: HeLa cell extract
T6 sequence (P33991 1-863): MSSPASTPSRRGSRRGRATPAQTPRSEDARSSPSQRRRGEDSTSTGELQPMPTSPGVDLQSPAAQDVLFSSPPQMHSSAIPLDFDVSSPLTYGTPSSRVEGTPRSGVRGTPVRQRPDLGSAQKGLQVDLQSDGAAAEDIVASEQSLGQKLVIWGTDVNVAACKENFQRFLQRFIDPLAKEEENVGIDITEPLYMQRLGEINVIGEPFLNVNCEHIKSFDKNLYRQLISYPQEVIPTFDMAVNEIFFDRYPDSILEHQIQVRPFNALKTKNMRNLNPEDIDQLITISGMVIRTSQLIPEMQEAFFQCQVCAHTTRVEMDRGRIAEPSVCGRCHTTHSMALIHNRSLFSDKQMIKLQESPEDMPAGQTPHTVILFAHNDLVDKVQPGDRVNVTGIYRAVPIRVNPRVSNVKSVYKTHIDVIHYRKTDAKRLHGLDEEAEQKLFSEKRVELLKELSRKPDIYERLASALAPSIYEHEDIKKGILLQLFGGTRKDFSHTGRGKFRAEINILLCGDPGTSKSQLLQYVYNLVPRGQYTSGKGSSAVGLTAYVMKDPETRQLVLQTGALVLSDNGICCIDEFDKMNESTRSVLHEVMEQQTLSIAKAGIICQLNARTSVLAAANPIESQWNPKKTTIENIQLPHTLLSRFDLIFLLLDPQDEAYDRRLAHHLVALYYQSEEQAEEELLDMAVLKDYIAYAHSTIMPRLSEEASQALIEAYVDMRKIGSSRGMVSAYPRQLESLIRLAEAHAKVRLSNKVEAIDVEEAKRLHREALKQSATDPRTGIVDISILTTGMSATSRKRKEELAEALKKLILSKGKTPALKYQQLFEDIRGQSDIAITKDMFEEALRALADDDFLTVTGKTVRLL

[9] = target: T1, DHFR-TS; assay type: binding; conditions: for fold change: LMJF.06.0860 DIH[…]-T[…], vehicle control = 1
[10] = test system: TB927.8.6460; experiment: Multitargeted bead mixture competition; assay type: binding, T. brucei; conditions: for fold change: CONSERVED, vehicle control = 1
[11] = target: T. brucei lysate proteins (Trypanosoma brucei brucei, UniProt Q04933); assay type: binding
[12] = target: T. brucei lysate proteins (Trypanosoma brucei brucei, UniProt P13377); assay type: binding
[13] = target: T. brucei lysate proteins (Trypanosoma brucei brucei, UniProt P12861); assay type: binding
[14] = target: T. brucei lysate proteins (Trypanosoma brucei brucei, UniProt P07752); assay type: binding
[15] = protein TB427TMP.02.5000 NGG1 I[…] 3-LIKE
[16] = protein TB427TMP.01.8470 DIHYDROLIPOYL DEHYDROGENASE, vehicle control = 1
[17] = protein TB427.01.3830 GLUCOSE-6-PHOSPHATE ISOMERASE, GLYCOSOMAL, vehicle control = 1
[18] = protein TB427.10.10980 HEAT SHOCK PROTEIN 83, vehicle control = 1
[19] = protein TB927.10.5620 FRUCTOSE-BI[…], GLYCOSOMAL, vehicle control = 1
[20] = protein TB427TMP.02.5000 NGG1 INTERACTING FACTOR 3-LIKE
[21] = HeLa, protein ANAPC1 (ANAPHASE-PROMOTING COMPLEX SUBUNIT 1)
[22] = protein LMJF.06.0860, DIH[…]-T[…]

Sequence of T. brucei lysate proteins (Trypanosoma brucei brucei, UniProt P38973) (P38973 whole entry): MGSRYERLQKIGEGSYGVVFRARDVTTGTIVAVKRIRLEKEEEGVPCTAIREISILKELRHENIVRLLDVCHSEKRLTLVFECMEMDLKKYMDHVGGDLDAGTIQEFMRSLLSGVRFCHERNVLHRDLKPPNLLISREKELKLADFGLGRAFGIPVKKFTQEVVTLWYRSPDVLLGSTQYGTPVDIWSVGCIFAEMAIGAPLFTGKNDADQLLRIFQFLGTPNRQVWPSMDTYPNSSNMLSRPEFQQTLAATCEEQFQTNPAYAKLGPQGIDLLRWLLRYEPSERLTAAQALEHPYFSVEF
T5 sequence (Q9H1A4 whole entry): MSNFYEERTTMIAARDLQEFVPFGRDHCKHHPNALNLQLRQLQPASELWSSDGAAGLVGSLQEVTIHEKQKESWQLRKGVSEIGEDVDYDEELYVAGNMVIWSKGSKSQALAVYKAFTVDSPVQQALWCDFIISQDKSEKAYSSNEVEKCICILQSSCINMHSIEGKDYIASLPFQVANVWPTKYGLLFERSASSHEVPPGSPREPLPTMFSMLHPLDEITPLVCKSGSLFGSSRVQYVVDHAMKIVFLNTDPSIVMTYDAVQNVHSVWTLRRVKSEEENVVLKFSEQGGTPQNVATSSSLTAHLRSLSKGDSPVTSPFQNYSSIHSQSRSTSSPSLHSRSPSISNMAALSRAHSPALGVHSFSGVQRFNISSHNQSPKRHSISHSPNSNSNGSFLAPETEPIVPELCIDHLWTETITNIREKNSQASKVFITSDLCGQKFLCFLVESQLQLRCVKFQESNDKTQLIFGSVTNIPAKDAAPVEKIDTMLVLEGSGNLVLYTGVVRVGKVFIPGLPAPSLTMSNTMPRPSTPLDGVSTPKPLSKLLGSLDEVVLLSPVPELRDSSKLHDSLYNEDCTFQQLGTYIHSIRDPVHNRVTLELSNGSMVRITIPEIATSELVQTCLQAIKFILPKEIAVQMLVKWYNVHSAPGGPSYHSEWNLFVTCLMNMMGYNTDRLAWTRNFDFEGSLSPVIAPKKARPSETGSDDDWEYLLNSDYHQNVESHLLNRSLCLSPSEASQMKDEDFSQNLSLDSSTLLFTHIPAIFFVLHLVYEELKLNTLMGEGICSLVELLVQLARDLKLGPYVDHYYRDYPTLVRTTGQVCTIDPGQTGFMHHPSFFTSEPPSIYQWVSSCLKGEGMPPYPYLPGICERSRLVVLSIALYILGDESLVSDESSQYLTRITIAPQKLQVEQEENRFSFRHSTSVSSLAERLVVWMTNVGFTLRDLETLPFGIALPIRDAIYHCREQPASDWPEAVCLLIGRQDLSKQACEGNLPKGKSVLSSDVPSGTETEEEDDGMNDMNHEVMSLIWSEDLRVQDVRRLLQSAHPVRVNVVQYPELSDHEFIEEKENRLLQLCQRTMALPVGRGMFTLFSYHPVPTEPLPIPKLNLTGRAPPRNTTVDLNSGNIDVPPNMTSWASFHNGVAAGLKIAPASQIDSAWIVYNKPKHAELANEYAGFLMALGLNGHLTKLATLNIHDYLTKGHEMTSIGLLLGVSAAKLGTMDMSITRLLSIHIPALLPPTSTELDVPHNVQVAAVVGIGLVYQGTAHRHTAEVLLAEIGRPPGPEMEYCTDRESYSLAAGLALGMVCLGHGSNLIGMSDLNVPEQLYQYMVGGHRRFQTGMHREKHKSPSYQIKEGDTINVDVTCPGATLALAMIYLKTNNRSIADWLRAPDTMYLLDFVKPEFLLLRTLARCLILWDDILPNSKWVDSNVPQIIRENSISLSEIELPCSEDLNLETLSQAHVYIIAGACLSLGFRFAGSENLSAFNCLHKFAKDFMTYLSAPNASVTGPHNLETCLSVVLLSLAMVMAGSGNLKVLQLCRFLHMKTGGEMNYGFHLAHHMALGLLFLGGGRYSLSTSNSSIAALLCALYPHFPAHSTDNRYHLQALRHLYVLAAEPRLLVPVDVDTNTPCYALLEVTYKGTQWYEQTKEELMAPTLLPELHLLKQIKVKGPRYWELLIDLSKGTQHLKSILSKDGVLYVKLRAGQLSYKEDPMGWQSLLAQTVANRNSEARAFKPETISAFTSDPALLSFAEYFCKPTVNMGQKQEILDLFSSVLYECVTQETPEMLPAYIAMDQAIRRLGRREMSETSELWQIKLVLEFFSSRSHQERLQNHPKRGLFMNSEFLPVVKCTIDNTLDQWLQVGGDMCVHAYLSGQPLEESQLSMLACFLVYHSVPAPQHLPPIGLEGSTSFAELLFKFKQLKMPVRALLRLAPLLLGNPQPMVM
Sequence of T. brucei lysate proteins (Trypanosoma brucei brucei, UniProt P07752) (P07752 whole entry): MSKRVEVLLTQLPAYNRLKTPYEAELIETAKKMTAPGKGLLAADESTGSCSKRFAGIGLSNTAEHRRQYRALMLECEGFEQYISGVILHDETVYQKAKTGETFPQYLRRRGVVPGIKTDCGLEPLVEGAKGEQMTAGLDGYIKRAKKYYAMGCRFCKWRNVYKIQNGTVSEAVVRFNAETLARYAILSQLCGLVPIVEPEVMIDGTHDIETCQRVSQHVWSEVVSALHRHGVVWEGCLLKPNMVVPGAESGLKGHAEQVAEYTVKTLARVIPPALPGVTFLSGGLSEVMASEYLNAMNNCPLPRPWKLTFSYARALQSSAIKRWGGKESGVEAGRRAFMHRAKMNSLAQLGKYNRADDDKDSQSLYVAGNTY
Sequence of T. brucei lysate proteins (Trypanosoma brucei brucei, UniProt Q04933) (Q04933 whole entry): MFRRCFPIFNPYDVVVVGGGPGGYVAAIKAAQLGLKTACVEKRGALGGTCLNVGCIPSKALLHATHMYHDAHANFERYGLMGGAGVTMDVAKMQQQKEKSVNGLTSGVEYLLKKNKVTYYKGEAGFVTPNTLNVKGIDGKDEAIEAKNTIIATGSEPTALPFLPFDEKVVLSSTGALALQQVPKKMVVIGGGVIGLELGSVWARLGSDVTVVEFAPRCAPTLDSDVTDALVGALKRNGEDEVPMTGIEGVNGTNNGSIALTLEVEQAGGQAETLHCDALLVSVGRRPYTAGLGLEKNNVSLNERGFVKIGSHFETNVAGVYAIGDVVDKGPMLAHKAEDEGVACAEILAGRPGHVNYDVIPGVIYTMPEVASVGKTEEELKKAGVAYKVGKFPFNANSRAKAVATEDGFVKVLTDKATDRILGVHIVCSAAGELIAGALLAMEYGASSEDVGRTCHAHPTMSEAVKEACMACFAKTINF
Sequence of T. brucei lysate proteins (Trypanosoma brucei brucei, UniProt P13377) (P13377 whole entry): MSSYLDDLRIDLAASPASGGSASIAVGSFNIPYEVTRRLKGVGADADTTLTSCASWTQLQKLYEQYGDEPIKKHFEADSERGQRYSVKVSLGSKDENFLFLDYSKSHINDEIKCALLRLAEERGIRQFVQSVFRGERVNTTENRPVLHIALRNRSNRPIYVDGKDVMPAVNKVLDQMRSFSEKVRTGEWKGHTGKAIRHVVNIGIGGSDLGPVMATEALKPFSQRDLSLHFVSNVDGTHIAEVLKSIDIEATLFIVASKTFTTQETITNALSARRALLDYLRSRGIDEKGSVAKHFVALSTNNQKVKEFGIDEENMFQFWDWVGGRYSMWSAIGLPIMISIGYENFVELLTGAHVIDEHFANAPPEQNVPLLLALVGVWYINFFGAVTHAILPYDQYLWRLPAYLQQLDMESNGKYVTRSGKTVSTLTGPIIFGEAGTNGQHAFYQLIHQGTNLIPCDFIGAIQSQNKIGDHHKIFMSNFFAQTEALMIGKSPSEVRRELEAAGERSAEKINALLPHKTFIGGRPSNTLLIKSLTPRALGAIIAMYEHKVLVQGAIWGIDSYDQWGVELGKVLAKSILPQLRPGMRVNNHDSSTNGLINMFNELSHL
T1 sequence (P07382 whole entry): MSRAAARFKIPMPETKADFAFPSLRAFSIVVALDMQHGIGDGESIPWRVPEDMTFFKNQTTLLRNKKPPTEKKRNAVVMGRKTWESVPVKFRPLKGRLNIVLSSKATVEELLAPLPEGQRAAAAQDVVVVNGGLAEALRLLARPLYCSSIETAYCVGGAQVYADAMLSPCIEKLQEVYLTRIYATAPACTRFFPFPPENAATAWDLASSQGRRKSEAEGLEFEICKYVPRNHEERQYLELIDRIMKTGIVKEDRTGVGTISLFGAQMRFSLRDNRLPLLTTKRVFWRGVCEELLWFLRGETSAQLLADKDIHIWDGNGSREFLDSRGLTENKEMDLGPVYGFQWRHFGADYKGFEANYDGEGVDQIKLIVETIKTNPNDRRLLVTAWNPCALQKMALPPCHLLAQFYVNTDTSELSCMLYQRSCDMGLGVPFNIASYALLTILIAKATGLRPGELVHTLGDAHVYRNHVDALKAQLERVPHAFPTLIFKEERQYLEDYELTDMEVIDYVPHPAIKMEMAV
T4 sequence (P41091 whole entry): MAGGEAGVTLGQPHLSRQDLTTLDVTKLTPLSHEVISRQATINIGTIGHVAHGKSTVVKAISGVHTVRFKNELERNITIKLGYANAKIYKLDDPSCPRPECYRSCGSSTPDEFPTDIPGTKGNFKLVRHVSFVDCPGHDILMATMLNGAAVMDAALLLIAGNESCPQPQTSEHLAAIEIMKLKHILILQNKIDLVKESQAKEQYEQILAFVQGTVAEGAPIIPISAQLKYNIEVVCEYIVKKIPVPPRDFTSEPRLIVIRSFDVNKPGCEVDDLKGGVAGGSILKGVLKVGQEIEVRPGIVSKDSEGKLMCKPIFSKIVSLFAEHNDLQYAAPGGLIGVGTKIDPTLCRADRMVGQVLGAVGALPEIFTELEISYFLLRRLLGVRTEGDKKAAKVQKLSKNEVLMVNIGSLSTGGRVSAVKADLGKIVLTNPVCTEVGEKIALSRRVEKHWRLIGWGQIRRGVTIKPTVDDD

Structure (SMILES) | inhibition at 100 µM [1] | fold change - vehicle control [2] | inhibition at 100 µM [3] | fold change [4, 15] | fold changes relative to vehicle control ([5]; captured protein ZC3H14, HeLa) | fold changes relative to vehicle control ([6]; protein EIF2S3, HeLa) | fold changes relative to vehicle control ([7]; HeLa, protein ANAPC1) | fold changes relative to vehicle control ([8]; protein MCM4, HeLa) | fold change [9] | fold change vs vehicle control [11, 16] | fold change vs vehicle control [12, 17] | fold change vs vehicle control [13, 18] | fold change vs vehicle control [14, 19] | fold change [4, 20] | fold changes relative to vehicle control ([5]; HeLa, captured protein ZC3H14) | fold changes relative to vehicle control [7, 21] | fold change relative to vehicle control [9, 22] | fold change ([10]; protein TB927.8.6460 HY[…]) | also measured
Nc1nc2cccc(-c3ccccc3)c2n1Cc1ccc(Cl)c(Cl)c1 [compound 3] | < 50% | 0.91 | < 50% | 1.02 | 0.96 | 1.06 | 1.21 | 0.9 | 1.11 | – | – | – | – | – | – | – | – | – | percentage of competition from bead binding ([4]; multitargeted bead mixture, free ligand 100 μM, T. brucei lysate, Tb427tmp.02.5000): -6%; percentage of competition from bead binding ([10]; multitargeted bead mixture, free ligand 100 μM, T. brucei lysate, TB927.8.6460): 15%
NCCOCCOCC(=O)Nc1nc2ncc(CNc3ccc(C(=O)NC(CCC(=O)O)C(=O)O)cc3)nc2c(=O)[nH]1 (centres unmarked) [compound 6] | – | – | – | – | – | 1.07 | – | 1.08 | – | 0.97 | 0.98 | 1.41 | 1.2 | 0.68 | 0.99 | 1.1 | 1.19 | 1.03 | –
Nc1nc2[nH]cc(CCc3ccc(C(=O)N[C@@H](CCC(=O)O)C(=O)O)cc3)c2c(=O)[nH]1 [PTX, pemetrexed] | – | – | – | 1.01 | – | – | – | – | – | – | – | – | – | – | – | – | – | 0.66 | fold change vs vehicle control [11]: 0.97; fold change vs vehicle control [12]: 0.85; fold change vs vehicle control [13]: 0.76; fold change vs vehicle control [14]: 1.11; fold changes relative to vehicle control [5]: 0.95; fold changes relative to vehicle control [6]: 0.87; fold changes relative to vehicle control [7]: 1.1; fold changes relative to vehicle control [8]: 0.96; fold change relative to vehicle control [9]: 1.08
Nc1nc2c(c(=O)[nH]1)N(C=O)C(CNc1ccc(C(=O)N[C@@H](CCC(=O)O)C(=O)O)cc1)CN2 (some centres unmarked) [LEU, leucovorin] | – | – | – | – | – | 0.81 | – | 0.87 | – | 0.93 | 1.22 | 1.64 | 1.22 | 0.98 | 1 | 1.09 | 1.39 | – | fold change ([10]; protein TB927.8.6460 HYPOTHETICAL PROTEIN): 0.84
CCCCCCOc1ccc(Cc2cnc(N)nc2N)cc1 [compound 1] | < 50% | 0.76 | < 50% | 1.08 | 0.83 | 1.07 | 1.05 | 1.11 | 0.17 | – | – | – | – | – | – | – | – | – | competition for DHFR-TS (Figure 8a) ([9]; bead mixture, L. major lysate): competed for DHFR-TS
NCCCNc1ccc(C(=O)NC(CCC(=O)O)C(=O)O)cc1 (centres unmarked) [compound 7] | – | – | – | 1.16 | – | 1 | – | 0.93 | – | 1.05 | 0.88 | 1 | 1.08 | – | 1.04 | 1.18 | 1.02 | 1.04 | –
CCCCCCOc1cccc(Cc2cnc(N)nc2N)c1 [compound 2] | < 50% | 0.86 | < 50% | – | 0.94 | 1.13 | 1.15 | 1.59 | 0.99 | – | – | – | – | 1.1 | – | – | – | – | –
